Assay results reported in patent US20220162240A1, “MITOCHONDRIA-TARGETED ISOKETAL/ISOLEVUGLANDIN SCAVENGERS” (Vanderbilt University, priority 2019, published 2022).
Entries after “also recorded” stand apart in the source; their conditions may differ.

Assays:
[1] = tested on: human aortic endothelial cells (HAEC); test: Mitochondrial superoxide in HAEC incubated with Ang II plus TNFα (MitoSOX/HPLC); format: cell-based
Method: (§1) Free radical oxidation of arachidonic acid produces highly reactive isolevuglandins (isoLG) which causes mitochondrial dysfunction by opening of the mitochondrial permeability transition pore (mPTP). […] The functional role of mitochondrial isoLG was tested in vivo using angiotensin II model of hypertension. C57Bl/6J mice were infused with angiotensin II (0.7 mg/kg/day) or saline (Sham) and received mito2HOBA in the drinking water (0.1 g/L). […] Decrease of NO is a hallmark of endothelial dysfunction in hypertension due to vascular oxidative stress.
(§2) Mitochondrial O2^• and cardiolipin oxidation (specific marker of mitochondrial dysfunction and oxidative stress) in cultured human aortic endothelial cells (HAEC) were incubated with Ang II and TNFα.

[2] = tested on: human aortic endothelial cells (HAEC); test: Cardiolipin oxidation in HAEC incubated with Ang II plus TNFα (LC/MS); format: cell-based; details: 50 nM, Ang II + TNFα 24 hours
Method: as §1, §2

hypertension = details: background statement; cited from earlier work
mitochondrial superoxide = test: Aortic mitochondrial superoxide (MitoSOX/HPLC) in Ang II-infused mice treated with CypD blocker; format: in vivo; details: i.p. 10 mg/kg/day after onset of Ang II-induced hypertension
Method: (§3) FIG. 3A-3D is a set of graphs showing examples of targeting CypD in hypertension. Blood pressure in C57Bl/6J mice infused with saline (Sham), Ang II (0.7 mg/kg/day) or treated with CypD blocker Sanglifehrin A (SFA) after onset of Ang II-induced hypertension (Ang II+SFA). Blood pressure was measured by tail-cuff method (A). ^3Following 14 days of saline or Ang II infusion, mice were sacrificed for isolation of aorta to study mitochondrial […] using MitoSOX and HPLC or to study vasodilation. Results are mean±SEM (n=6-8). *P<0.01 vs Sham, **P<0.01 vs Ang II, ***P<0.01 vs Ang II+SFA (n=8).
(§4) One aspect of the present invention is targeting CypD after onset of hypertension. The present inventors implanted wild-type mice with osmotic pump containing Ang II (0.7 mg/kg/day) and started treatment with Sanglifehrin A after onset of Ang II-induced hypertension (FIG. 3A).

[3] = tested on: Ang II-infused C57Bl/6J mice; test: Blood pressure (tail-cuff) in Ang II-induced hypertension, CypD blocker given after onset; format: in vivo; details: i.p. 10 mg/kg/day after onset of Ang II-induced hypertension
Method: as §3, §4

aorta = test: Vasodilatation of aorta from Ang II-infused mice treated with CypD blocker; format: in vivo; details: i.p. 10 mg/kg/day after onset of Ang II-induced hypertension
Method: as §3, §4

[4] = tested on: intact mouse kidney mitochondria; test: Swelling and respiration of isolated mouse kidney mitochondria after acute isoLG or isoLG-PE exposure; details: for mPTP opening / mitochondrial swelling / inhibition of mitochondrial respiration: 1 μM; for inhibition of mitochondrial respiration: acute treatment of isolated mitochondria, 5 min, glutamate and malate, ADP 50 μM
Method: Intact mouse kidney mitochondria with glutamate and malate were incubated (5 min) with ethanol as vehicle, isoLG (1 μM) or isoLG-PE (1 μM) prior to addition of ADP (50 μM) and measurements of oxygen consumption. *P<0.001 vs Control, **P<0.03 vs isoLG.
Reactive isoLG produce protein-Lysine adducts and cytotoxic isoLG-phosphatidylethanolamine adduct (isoLG-PE) which can independently contribute to mitochondrial dysfunction. Indeed, acute treatment of isolated mitochondria with isoLG-PE inhibited respiration by 41% while similar dose of isoLG reduced respiration by 74% which support potential role of both isoLG-PE and isoLG protein-Lysine adducts in mitochondrial dysfunction.

[5] = acute exposure of isolated mitochondria

## NCc1ccccc1O [2HOBA, 2-hydroxybenzylamine, reference compound]
[1]; 50 nM, Ang II + TNFα 24 hours, MitoSOX/HPLC
  mitochondrial superoxide production / mitochondrial oxidative stress: not effective
[1]; Ang II + TNFα
  concentration required for protection similar to mito2HOBA (50 nM) against mitochondrial oxidative stress: much higher concentrations
[2]
  cardiolipin oxidation: not effective
hypertension
  endothelium-dependent relaxation in animal studies: protects endothelium-dependent relaxation
  hypertension in animal studies: attenuates hypertension
  inflammation in animal studies: prevents inflammation

## CC[C@H]1C[C@H](C)[C@@]2(NC1=O)O[C@@H](C[C@H](O)[C@@H](C)CC/C=C/C=C(\C)[C@@H]1C/C=C/C=C/[C@H](O)[C@H](C)[C@@H](O)[C@@H](CCC(C)=O)C(=O)N[C@@H](C(C)C)C(=O)N[C@@H](Cc3cccc(O)c3)C(=O)N3CCC[C@H](N3)C(=O)O1)[C@H](C)[C@H](O)[C@@H]2C [Sanglifehrin A]
Mitochondrial superoxide
  mitochondrial superoxide production in aorta: normalizes
[3]
  blood pressure: reduces blood pressure
aorta
  vasodilatation: improves vasodilatation

## isoLG-phosphatidylethanolamine adduct [isoLG-PE]
[4]; [5]
  mPTP opening / mitochondrial swelling: mitochondrial swelling
[4]
  inhibition of mitochondrial respiration: 41%

## isolevuglandins [isoLG]
[4]; [5]
  mitochondrial respiration: inhibits mitochondrial respiration
  mPTP opening / mitochondrial swelling: induces CypD-dependent mPTP opening; also recorded: mitochondrial swelling
[4]
  inhibition of mitochondrial respiration: 74%
